Columns and labels:
Assay type in all cases: cell-based
[1] = tested on: SAOS-2 osteosarcoma cell line; test: CCK-8 proliferation inhibition; settings: Homo sapiens, 72 hours, read-out: IC50 Steosarcoma SAOS-2
In short: (§1)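 Cells were seeded at 2000 cells/well and cultured overnight at 37° C, 5% CO2, then exposed for 72 hours to compounds diluted from DMSO stocks. Controls received 1‰ DMSO. CCK-8 (1:10 diluted) replaced the medium. MGC-803 and Jurkat were grown in 1640, PC3 in F12, and MCF-7 in DMEM high glucose, each with 10% newborn bovine serum.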

[2] = tested on: PC3 prostate cancer cell line; test: CCK-8 proliferation inhibition; settings: 72 hours
In short: as §1

[3] = tested on: MCF-7 breast cancer cell line; test: CCK-8 proliferation inhibition; settings: Homo sapiens, MCF7, 72 hours
In short: as §1

[4] = tested on: A549 lung cancer cell line; test: CCK-8 proliferation inhibition
In short: (§2)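 Plating at 2000 cells/well, then incubation overnight at 37° C. Next, a range of compound concentrations for 72 hours (control 1‰ DMSO). Finally, medium decanted and CCK-8 diluted 1:10 added.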

[5] = tested on: Jurkat T cell leukemia cell line; test: CCK-8 proliferation inhibition; settings: Homo sapiens, 72 hours
In short: as §1

[6] = tested on: MGC-803 gastric cancer cell line; test: CCK-8 proliferation inhibition
In short: as §1

[7] = tested on: BEL-7402 liver cancer cell line; test: CCK-8 proliferation inhibition
In short: as §2

[8] = tested on: Hela cervical cancer cell line; test: CCK-8 proliferation inhibition; settings: Homo sapiens, 72 hours
In short: as §2

[9] = tested on: HL60 acute myeloid leukemia cell line; test: CCK-8 proliferation inhibition; settings: Homo sapiens, HL-60, 72 hours
In short: as §2

[10] = MIC in vitro anti-bacterial experiments, Gram-positive bacteria; settings: lowest MIC reached; read-out: minimum inhibitory concentration against Gram-positive bacteria
In short: (§3)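 Samples are serially diluted two-fold in agar following CLSI guidance. Plates are then inoculated with the tested strains. The lowest inhibiting concentration is recorded as MIC.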

[11] = tested on: HCT-116 colorectal cancer cell line; test: CCK-8 proliferation inhibition; settings: 72 hours, CCK-8
In short: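 HCT-116 cells, seeded at 2000 cells/well in McCoy's 5A with 10% newborn bovine serum, were cultured overnight at 37° C., 5% CO2, then exposed to compound dilutions in medium for 72 hours. Viability was read with 1:10 diluted CCK-8; controls received 1‰ DMSO.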

[12] = tested on: methicillin-sensitive Staphylococcus aureus (MSSA); test: MIC, two-fold agar dilution (CLSI), clinical isolates
In short: as §3

[13] = tested on: methicillin-resistant Staphylococcus epidermidis (MRSE); test: as above
In short: as §3

[14] = tested on: methicillin-sensitive Staphylococcus epidermidis (MSSE); test: as above
In short: as §3

[15] = tested on: Escherichia coli (including ESBLs, non-ESBLs); test: as above
In short: as §3

[16] = tested on: methicillin-resistant Staphylococcus aureus (MRSA); test: as above
In short: as §3

[17] = tested on: Enterococcus faecium (EFM); test: as above
In short: as §3

[18] = tested on: Moraxella catarrhalis (BCA); test: as above
In short: as §3

[19] = tested on: Enterococcus faecalis (EFA); test: as above
In short: as §3

[20] = tested on: Streptococcus pneoumoniae (SPN); test: as above
In short: as §3

[21] = concentration of 30 μM, 72 hours, 30 µM

SMILES: O=C(C[C@@H](CC1CCCC1)C(=O)N1CC2(CC2)C[C@H]1C(=O)Nc1ccc(F)cn1)NO [Example 64]
- IC50 [1]: 2000 nM
- IC50 [2]: 6.17 µM
- IC50 [3]: 6.62 µM
- inhibition at 30 µM ([4]; Homo sapiens, A549, 72 h, concentration of 30 μM): > 50%
- IC50 ([4]; Homo sapiens, A549, 72 hours): 4.86 µM
- Inhibition of proliferation, Lung cancer A549 [4, 21]: 61%
- IC50 [5]: 7.61 µM
- inhibition at 30 µM ([6]; Homo sapiens, MGC-803, 72 h, concentration of 30 μM): > 50%
- IC50 ([6]; Homo sapiens, MGC-803, 72 hours): 6.11 µM
- Inhibition of proliferation, Gastric cancer MGC-803 [6, 21]: 63%
- IC50 ([7]; Homo sapiens, Bel-7402, 72 hours): 5 µM
- Inhibition of proliferation, Liver cancer BEL-7402 [7, 21]: 81%
- IC50 [8]: 11.5 µM
- IC50 [9]: 1210 nM
- MIC [10]: < 8 ng/mL
- IC50 ([11]; Homo sapiens, HCT-116): 4.88 µM
- HCT116 inhibition rate/% ([11]; concentration of 30 μM, 30 µM): 87%
- Anti-bacterial activity (MIC), strain MSSA 15-3 ([12]; clinical isolate MSSA 15-3): 0.06 µg/mL
- Anti-bacterial activity (MIC), strain MSSA 15-4 ([12]; clinical isolate MSSA 15-4): 0.03 µg/mL
- Anti-bacterial activity (MIC), strain MSSA 15-5 ([12]; clinical isolate MSSA 15-5): 0.03 µg/mL
- Anti-bacterial activity (MIC), strain MSSA 15-6 ([12]; clinical isolate MSSA 15-6): 16 µg/mL
- Anti-bacterial activity (MIC), strain MRSE 15-1 ([13]; clinical isolate MRSE 15-1): 0.06 µg/mL
- Anti-bacterial activity (MIC), strain MRSE 15-2 ([13]; clinical isolate MRSE 15-2): 0.06 µg/mL
- Anti-bacterial activity (MIC), strain MRSE 15-3 ([13]; clinical isolate MRSE 15-3): 0.06 µg/mL
- Anti-bacterial activity (MIC), strain MRSE 15-7 ([13]; clinical isolate MRSE 15-7): 0.06 µg/mL
- Anti-bacterial activity (MIC), strain MSSE 15-3 ([14]; clinical isolate MSSE 15-3): 0.03 µg/mL
- Anti-bacterial activity (MIC), strain MSSE 15-4 ([14]; clinical isolate MSSE 15-4): 0.06 µg/mL
- Anti-bacterial activity (MIC), strain MSSE 15-5 ([14]; clinical isolate MSSE 15-5): 0.06 µg/mL
- Anti-bacterial activity (MIC), strain MSSE 15-6 ([14]; clinical isolate MSSE 15-6): > 8 ng/mL
- Anti-bacterial activity (MIC), strain ECO+ 15-1 ([15]; clinical isolate ECO+ 15-1): 16 µg/mL
- Anti-bacterial activity (MIC), strain ECO+ 15-2 ([15]; clinical isolate ECO+ 15-2): 32 µg/mL
- Anti-bacterial activity (MIC), strain ECO+ 15-3 ([15]; clinical isolate ECO+ 15-3): 16 µg/mL
- Anti-bacterial activity (MIC), strain ECO+ 15-4 ([15]; clinical isolate ECO+ 15-4): 16 µg/mL
- Anti-bacterial activity (MIC), strain ECO− 15-1 ([15]; clinical isolate ECO− 15-1): 16 µg/mL
- Anti-bacterial activity (MIC), strain ECO− 15-2 ([15]; clinical isolate ECO− 15-2): 16 µg/mL
- Anti-bacterial activity (MIC), strain ECO− 15-3 ([15]; clinical isolate ECO− 15-3): 32 µg/mL
- Anti-bacterial activity (MIC), strain ECO− 15-4 ([15]; clinical isolate ECO− 15-4): 16 µg/mL
- Anti-bacterial activity (MIC), strain MRSA 15-1 ([16]; clinical isolate MRSA 15-1): 0.03 µg/mL
- Anti-bacterial activity (MIC), strain MRSA 15-2 ([16]; clinical isolate MRSA 15-2): 0.06 µg/mL
- Anti-bacterial activity (MIC), strain MRSA 15-3 ([16]; clinical isolate MRSA 15-3): 0.03 µg/mL
- Anti-bacterial activity (MIC), strain MRSA 15-4 ([16]; clinical isolate MRSA 15-4): 0.06 µg/mL
- Anti-bacterial activity (MIC), strain EFM 15-1 ([17]; clinical isolate EFM 15-1): 32 µg/mL
- Anti-bacterial activity (MIC), strain EFM 15-2 ([17]; clinical isolate EFM 15-2): 32 µg/mL
- Anti-bacterial activity (MIC), strain EFM 15-3 ([17]; clinical isolate EFM 15-3): 32 µg/mL
- Anti-bacterial activity (MIC), strain EFM 15-4 ([17]; clinical isolate EFM 15-4): 1 µg/mL
- Anti-bacterial activity (MIC), strain EFM 15-5 ([17]; clinical isolate EFM 15-5): 1 µg/mL
- Anti-bacterial activity (MIC), strain EFM 15-6 ([17]; clinical isolate EFM 15-6): 1 µg/mL
- Anti-bacterial activity (MIC), strain BCA 14-1 ([18]; clinical isolate BCA 14-1): 0.25 µg/mL
- Anti-bacterial activity (MIC), strain BCA 14-4 ([18]; clinical isolate BCA 14-4): 1 µg/mL
- Anti-bacterial activity (MIC), strain BCA 14-5 ([18]; clinical isolate BCA 14-5): 1 µg/mL
- Anti-bacterial activity (MIC), strain BCA 14-6 ([18]; clinical isolate BCA 14-6): 1 µg/mL
- Anti-bacterial activity (MIC), strain BCA 14-7 ([18]; clinical isolate BCA 14-7): 1 µg/mL
- Anti-bacterial activity (MIC), strain BCA 14-8 ([18]; clinical isolate BCA 14-8): 0.125 µg/mL
- Anti-bacterial activity (MIC), strain BCA 14-10 ([18]; clinical isolate BCA 14-10): 0.125 µg/mL
- Anti-bacterial activity (MIC), strain EFA 15-1 ([19]; clinical isolate EFA 15-1): 32 µg/mL
- Anti-bacterial activity (MIC), strain EFA 15-2 ([19]; clinical isolate EFA 15-2): 32 µg/mL
- Anti-bacterial activity (MIC), strain EFA 15-3 ([19]; clinical isolate EFA 15-3): 32 µg/mL
- Anti-bacterial activity (MIC), strain EFA 15-4 ([19]; clinical isolate EFA 15-4): 32 µg/mL
- Anti-bacterial activity (MIC), strain EFA 15-5 ([19]; clinical isolate EFA 15-5): 32 µg/mL
- Anti-bacterial activity (MIC), strain EFA 15-6 ([19]; clinical isolate EFA 15-6): 32 µg/mL
- Anti-bacterial activity (MIC), strain EFA 15-9 ([19]; clinical isolate EFA 15-9): 4 µg/mL
- Anti-bacterial activity (MIC), strain SPN 16-2 ([20]; clinical isolate SPN 16-2): 0.125 µg/mL
- Anti-bacterial activity (MIC), strain SPN 16-4 ([20]; clinical isolate SPN 16-4): 0.125 µg/mL

From patent US10738028B2, “Spiro three-membered ring, spiro five-membered ring peptide deformylase inhibitor and use thereof in antibacteria and anti-tumor” (priority 2016, dated 2020)
